Source: patent US7084239B1, “Cancer peptides of NY-ESO-1/CAG-3” (The United States of America as represented by the …, priority 1997, dated 2006)

Assays:
CTL clone 5 = test: Chromium release cytolysis of peptide-pulsed target cells by CTL clone 5; format: cell-based, human
Procedure: FIGS. 5A–5C. Characterization of the 9-mer ESO9-54 and 10-mer ESO10-53 derived from the normal open reading frame. FIG. 5A. 586EBV or 1510EBV B cells were pulsed with ESO10-53 and ESO9-54 peptides at different concentrations for 120 min. After two washes with AIM-V medium with 120 IU IL-2, CTL clone 5 (1×10^5/well) was added and incubated for 18 to 24 h. GM-CSF release by CTL clone 5 was determined by ELISA. FIG. 5B. 586mel cells were lysed by CTL clone 5, but 397mel cells were not lysed by CTL clone 5 at different E:T ratios. FIG. 5C. 586EBV and 1510EBV B cells were labeled with chromium overnight. The ESO10-53 peptide was then pulsed on the chromium-labeled 586EBV, 1510EBV, and T2 cells for 120 min. An irrelevant peptide containing an HLA-A31 peptide-binding motif was also pulsed on chromium-labeled 586EBV, 1510EBV B cells as negative controls. After peptide incubation and two washes, cytolysis of target cells by CTL clone 5 was determined in a 4-h chromium release assay. T2 pulsed with the ESO10-53 peptide was used for the specificity control.
Cytolytic assay was done as previously described (Kawakami, Y et al., 1994, Proc. Natl. Acad. Sci. USA 91:6458–62). Briefly, the target cells were labeled with chromium for 90 min. After washing three times, the cells were incubated with peptides at a concentration of 1 μg/ml for 90 min. The cells were washed again, counted, and then mixed with TIL586 or CTL clone 5 at the indicated ratio of effector: targets (E:T). Chromium release was measured after 4 h incubation. The peptides were synthesized by a solid-phase method using a peptide synthesizer (Model AMS 422, Gilson Co., Inc., Worthington, Ohio). Some peptides were purified by HPLC and had greater than 98% in purity. […] Percentage of specific lysis was determined from the equation (A−B)/(C−B)×100 where A is lysis of 586EBV B cells by TIL586 or clone 5 in the presence of a peptide, B is spontaneous release from 586EBV B cells in presence of the same peptide but in the absence of effector cells, and C is the maximum chromium release. […]

CTL clone 2 = test: T cell recognition (GM-CSF release) of peptide-pulsed EBV B cells by CTL clone 2; format: cell-based, human; conditions: peptide pulsed onto 1510EBV or 586EBV B cells
From the text: FIGS. 7A–7C. An alternative open reading frame of the NY-ESO-1 gene and antigenic peptides recognized by CTL. FIG. 7A. Identification of antigenic peptides from the ORF2. Thirty peptides were synthesized based on all potential ORFs and screened. Representative data are shown here. Seven peptides derived from ORF2 (see FIG. 3A) were pulsed on HLA-A31 positive 1510EBV B cells and tested for T cell recognition based on GM-CSF release ([…], SEQ ID NO: 123; […], SEQ ID NO: 124; […], SEQ ID NO: 125; […], SEQ ID NO: 46; […], SEQ ID NO: 47; […], SEQ ID NO: 126; and […], SEQ ID NO: 127). 1510 EBV alone was used as a negative control. FIG. 7B. 1510EBV B cells were labeled with chromium for 2 h. The ESORF2-10-18 peptide was then pulsed on the chromium-labeled […] (solid square) and HLA-A31-negative 1102EBV (open circle) at different concentrations. 1510EBV pulsed with ESO10-53, which was recognized by CTL clone 5, was used for the specificity control (solid triangle). After peptide incubation and three washes, cytolysis of target cells by CTL-clone 2 was determined in a 4-h chromium release assay at an E:T ratio of 20:1. FIG. 7C. Several tumor lines and fresh breast tumors were tested for recognition by CTL clone 2 to determine whether the ORF2 is translated in different tumors. 1510EBV B cells pulsed with […] (SEQ ID NO: 25) (ESO10-53), […] (SEQ ID NO: 47) (ORF2-10-18), or alone were included to evaluate the reactivity and specificity of CTL clone 2 and 5. Expression of HLA-A31 on the tumor cells is indicated.
DNA transfection and GM-CSF assay were done as previously described (Wang, R. F., P. F. Robbins, Y. Kawakami, X. Q. Kang, and S. A. Rosenberg, 1995, J. Exp. Med. 181:799–804). Briefly, […] of DNA carrying a different fragment and 50 ng of the HLA-A31 DNA were mixed with 2 μl of lipofectamine in 100 μl of serum-free DMEM for 15–45 min. The DNA/lipofectamine mixture was then added to the COS-7 (5×10^4) cells and incubated overnight. The following day, cells were washed twice with DMEM medium. TIL586, CTL clone 5 or CTL clone 10 were added at a concentration of 5×10^4 cells/well in AIM-V medium containing 120 IU/ml of IL-2. After 18–24 h incubation, 100 μl of supernatant was collected and GM-CSF was measured in a standard ELISA assay (R+D Systems, Minneapolis, Minn.). […]
CTL clone 5 and TIL1244 were used for the specificity controls. […] To test the hypothesis that CTL may recognize a peptide from a gene product translated from an alternative open reading frame of the same gene, synthetic peptides were made with HLA-A31 Binding motif on the basis of amino acid sequence predicted from the second open reading frames (ORF2) (FIG. 3A). […]

## ASGPGGGAPR (listed as Homo sapiens) [ESO10-53]
CTL clone 5; E:T ratio of 2.5:1, 4-h chromium release
  Lysis of peptide-incubated 586EBV or 1510EBV by CTL clone 5: 5–10%
CTL clone 5; E:T ratio of 40:1, 4-h chromium release
  Lysis of peptide-incubated 586EBV or 1510EBV by CTL clone 5: > 60%
CTL clone 5; T2 cells, specificity control (FIG. 5C)
  Lysis of HLA-A31-negative T2 cells pulsed with peptide by CTL clone 5: nor did it lyse
CTL clone 2
  Recognition by CTL clone 2, in words: did not recognize
CTL clone 2; listed as ESO 10-53
  Recognition by CTL clone 2, in words: failed to recognize
